Assay results: paper PMC3829776 (Nature chemical biology, 2013)

Target: T1, Adipose triglyceride lipase (ATGL) (Mus musculus, UniProt Q8BJ56)
T1 sequence (Q8BJ56 1-486): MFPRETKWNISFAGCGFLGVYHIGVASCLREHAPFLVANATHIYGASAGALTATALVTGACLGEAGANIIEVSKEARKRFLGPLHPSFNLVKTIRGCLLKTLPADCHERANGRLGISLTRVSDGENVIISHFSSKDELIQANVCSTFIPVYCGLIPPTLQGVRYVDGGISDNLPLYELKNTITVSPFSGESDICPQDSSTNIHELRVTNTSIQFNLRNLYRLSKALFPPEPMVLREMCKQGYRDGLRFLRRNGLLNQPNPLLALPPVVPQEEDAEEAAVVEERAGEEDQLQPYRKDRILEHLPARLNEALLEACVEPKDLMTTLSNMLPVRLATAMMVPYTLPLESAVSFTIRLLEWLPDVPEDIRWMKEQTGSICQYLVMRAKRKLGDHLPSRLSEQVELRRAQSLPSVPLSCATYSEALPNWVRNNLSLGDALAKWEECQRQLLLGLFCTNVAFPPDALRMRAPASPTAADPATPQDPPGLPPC
T1 sequence (Q9DBL9 1-351 partner): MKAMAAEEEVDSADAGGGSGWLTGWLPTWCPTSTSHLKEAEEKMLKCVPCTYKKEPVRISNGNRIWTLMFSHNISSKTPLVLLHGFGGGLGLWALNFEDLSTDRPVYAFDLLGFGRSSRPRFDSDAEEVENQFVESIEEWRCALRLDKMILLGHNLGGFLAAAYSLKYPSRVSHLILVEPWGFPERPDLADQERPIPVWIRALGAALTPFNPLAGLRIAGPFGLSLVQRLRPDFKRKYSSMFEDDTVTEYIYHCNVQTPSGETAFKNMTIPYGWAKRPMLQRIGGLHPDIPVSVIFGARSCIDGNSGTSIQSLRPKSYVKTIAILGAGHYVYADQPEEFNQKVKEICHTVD
Type: biochemical

Ki: 355 ± 48 nM
Compound: CN(C)C(=O)Nc1cccc(-c2ccc(N(C)C)cc2)c1 [compound 4, Atglistatin]
